Experimental data published in ChEMBL document CHEMBL3885881, “DrugMatrix”.

Species on record: Rattus norvegicus
Test: DrugMatrix - Regimen: Daily Repeat
Type: toxicity, organism-based, Sprague-Dawley
Set-up: regimen Daily Repeat, gender Male, age 6-8 weeks
Conditions: in vivo, iv, vehicle 100 % SALINE; for ABSOLUTE BASOPHIL / ABSOLUTE EOSINOPHIL / ABSOLUTE LYMPHOCYTE / ABSOLUTE MONOCYTE / ABSOLUTE SEGMENTED NEUTROPHIL / BASOPHIL / EOSINOPHIL / ERYTHROCYTE COUNT / HEMATOCRIT / HEMOGLOBIN / LEUKOCYTE COUNT / LYMPHOCYTE / MEAN CORPUSCULAR HEMOGLOBIN / MEAN CORPUSCULAR HEMOGLOBIN CONCENTRATION / MEAN CORPUSCULAR VOLUME / MONOCYTE / NEUTROPHIL / NUCLEATED RED BLOOD CELLS / PLATELET COUNT: tissue Blood; for ALANINE AMINOTRANSFERASE / ALBUMIN / ALKALINE PHOSPHATASE / ASPARTATE AMINOTRANSFERASE / BLOOD UREA NITROGEN / CARBON DIOXIDE / CHLORIDE / CHOLESTEROL / CREATINE PHOSPHOKINASE / CREATININE / GLUCOSE / LACTATE DEHYDROGENASE / LIPASE / PHOSPHORUS / POTASSIUM / SODIUM / TOTAL BILIRUBIN / TOTAL PROTEIN / URIC ACID: tissue Plasma
[1] = 12 mg/kg, 120 h, dose level High, time 5 day
[2] = […], 72 h, dose 1.2 mg/Kg, dose level Low, time 3 day
[3] = […], 120 h, dose 1.2 mg/Kg, dose level Low, time 5 day

Compound: Cc1c(N)nc([C@H](CC(N)=O)NC[C@H](N)C(N)=O)nc1C(=O)N[C@H](C(=O)N[C@H](C)[C@@H](O)[C@H](C)C(=O)N[C@H](C(=O)NCCc1nc(-c2nc(C(=O)NCCC[S+](C)C)cs2)cs1)[C@@H](C)O)[C@@H](O[C@@H]1O[C@@H](CO)[C@@H](O)[C@H](O)[C@@H]1O[C@H]1O[C@H](CO)[C@@H](O)[C@H](OC(N)=O)[C@@H]1O)c1c[nH]cn1.[Br-] [BLEOMYCIN A2]
- ABSOLUTE BASOPHIL [1]: 0 CELLS/uL
- ABSOLUTE EOSINOPHIL [1]: 50 CELLS/uL
- ABSOLUTE LYMPHOCYTE [1]: 10142.67 CELLS/uL
- ABSOLUTE MONOCYTE [1]: 392.67 CELLS/uL
- ABSOLUTE SEGMENTED NEUTROPHIL [1]: 1914.67 CELLS/uL
- BASOPHIL [1]: 0%
- EOSINOPHIL [1]: 0.33%
- ERYTHROCYTE COUNT [1]: 6.36 x10E6/uL
- HEMATOCRIT [1]: 38.97%
- HEMOGLOBIN [1]: 15.17 G/DL
- LEUKOCYTE COUNT [1]: 12.5 x10E3/uL
- LYMPHOCYTE [1]: 80%
- MEAN CORPUSCULAR HEMOGLOBIN [1]: 23.87 pg
- MEAN CORPUSCULAR HEMOGLOBIN CONCENTRATION [1]: 38.93 G/DL
- MEAN CORPUSCULAR VOLUME [1]: 61.27 fL
- MONOCYTE [1]: 3.33%
- NEUTROPHIL [1]: 16.33%
- NUCLEATED RED BLOOD CELLS [1]: 0.33 /100WBC
- PLATELET COUNT [1]: 1342 x10E3/uL
- ALANINE AMINOTRANSFERASE [1]: 41.67 u/L
- ALBUMIN [1]: 3.83 G/DL
- ALKALINE PHOSPHATASE [1]: 202.67 u/L
- ASPARTATE AMINOTRANSFERASE [1]: 100.67 u/L
- BLOOD UREA NITROGEN [1]: 16.67 mg/dL
- CARBON DIOXIDE [1]: 29 mmol/L
- CHLORIDE [1]: 101 MEQ/L
- CHOLESTEROL [1]: 54.33 mg/dL
- CREATINE PHOSPHOKINASE [1]: 1017.67 u/L
- CREATININE [1]: 0.13 mg/dL
- GLUCOSE [1]: 145.67 mg/dL
- LACTATE DEHYDROGENASE [1]: 563.33 u/L
- LIPASE [1]: 10 u/L
- PHOSPHORUS [1]: 10.83 mg/dL
- POTASSIUM [1]: 6.11 MEQ/L
- SODIUM [1]: 142.27 MEQ/L
- TOTAL BILIRUBIN [1]: 0.1 mg/dL
- TOTAL PROTEIN [1]: 6 G/DL
- URIC ACID [1]: 1.3 mg/dL
- ABSOLUTE BASOPHIL [2]: 0 CELLS/uL
- ABSOLUTE EOSINOPHIL [2]: 212 CELLS/uL
- ABSOLUTE LYMPHOCYTE [2]: 11289 CELLS/uL
- ABSOLUTE MONOCYTE [2]: 312.33 CELLS/uL
- ABSOLUTE SEGMENTED NEUTROPHIL [2]: 1786.67 CELLS/uL
- BASOPHIL [2]: 0%
- EOSINOPHIL [2]: 1.67%
- ERYTHROCYTE COUNT [2]: 5.13 x10E6/uL
- HEMATOCRIT [2]: 35.1%
- HEMOGLOBIN [2]: 13.93 G/DL
- LEUKOCYTE COUNT [2]: 13.6 x10E3/uL
- LYMPHOCYTE [2]: 83%
- MEAN CORPUSCULAR HEMOGLOBIN [2]: 27.23 pg
- MEAN CORPUSCULAR HEMOGLOBIN CONCENTRATION [2]: 39.73 G/DL
- MEAN CORPUSCULAR VOLUME [2]: 68.43 fL
- MONOCYTE [2]: 2.33%
- NEUTROPHIL [2]: 13%
- NUCLEATED RED BLOOD CELLS [2]: 0 /100WBC
- PLATELET COUNT [2]: 1111 x10E3/uL
- ALANINE AMINOTRANSFERASE [2]: 40.67 u/L
- ALBUMIN [2]: 4.37 G/DL
- ALKALINE PHOSPHATASE [2]: 464.33 u/L
- ASPARTATE AMINOTRANSFERASE [2]: 82.33 u/L
- BLOOD UREA NITROGEN [2]: 13.33 mg/dL
- CARBON DIOXIDE [2]: 25.33 mmol/L
- CHLORIDE [2]: 100 MEQ/L
- CHOLESTEROL [2]: 69.33 mg/dL
- CREATINE PHOSPHOKINASE [2]: 261.33 u/L
- CREATININE [2]: 0.18 mg/dL
- GLUCOSE [2]: 184.67 mg/dL
- LACTATE DEHYDROGENASE [2]: 180 u/L
- LIPASE [2]: 10.67 u/L
- PHOSPHORUS [2]: 11.87 mg/dL
- POTASSIUM [2]: 5.72 MEQ/L
- SODIUM [2]: 144 MEQ/L
- TOTAL BILIRUBIN [2]: 0.23 mg/dL
- TOTAL PROTEIN [2]: 5.97 G/DL
- URIC ACID [2]: 1.6 mg/dL
- ABSOLUTE BASOPHIL [3]: 0 CELLS/uL
- ABSOLUTE EOSINOPHIL [3]: 37 CELLS/uL
- ABSOLUTE LYMPHOCYTE [3]: 10260.33 CELLS/uL
- ABSOLUTE MONOCYTE [3]: 119.33 CELLS/uL
- ABSOLUTE SEGMENTED NEUTROPHIL [3]: 1383.33 CELLS/uL
- BASOPHIL [3]: 0%
- EOSINOPHIL [3]: 0.33%
- ERYTHROCYTE COUNT [3]: 5.63 x10E6/uL
- HEMATOCRIT [3]: 35.3%
- HEMOGLOBIN [3]: 14.17 G/DL
- LEUKOCYTE COUNT [3]: 11.8 x10E3/uL
- LYMPHOCYTE [3]: 87%
- MEAN CORPUSCULAR HEMOGLOBIN [3]: 25.2 pg
- MEAN CORPUSCULAR HEMOGLOBIN CONCENTRATION [3]: 40.17 G/DL
- MEAN CORPUSCULAR VOLUME [3]: 62.77 fL
- MONOCYTE [3]: 1%
- NEUTROPHIL [3]: 11.67%
- NUCLEATED RED BLOOD CELLS [3]: 0 /100WBC
- PLATELET COUNT [3]: 1110.33 x10E3/uL
- ALANINE AMINOTRANSFERASE [3]: 46.33 u/L
- ALBUMIN [3]: 4.17 G/DL
- ALKALINE PHOSPHATASE [3]: 346 u/L
- ASPARTATE AMINOTRANSFERASE [3]: 85 u/L
- BLOOD UREA NITROGEN [3]: 17 mg/dL
- CARBON DIOXIDE [3]: 32.33 mmol/L
- CHLORIDE [3]: 99.67 MEQ/L
- CHOLESTEROL [3]: 72.33 mg/dL
- CREATINE PHOSPHOKINASE [3]: 387 u/L
- CREATININE [3]: 0.22 mg/dL
- GLUCOSE [3]: 142.67 mg/dL
- LACTATE DEHYDROGENASE [3]: 421.33 u/L
- LIPASE [3]: 10.67 u/L
- PHOSPHORUS [3]: 12.3 mg/dL
- POTASSIUM [3]: 6.05 MEQ/L
- SODIUM [3]: 144.13 MEQ/L
- TOTAL BILIRUBIN [3]: 0.17 mg/dL
- TOTAL PROTEIN [3]: 6.1 G/DL
- URIC ACID [3]: 1.27 mg/dL
